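96-well plates; 48 h exposure; 5 concentrations. Endpoints by linear interpolation between flanking doses. Not reached: highest tested concentration assigned. GI50 marks 50% less growth. TGI is the concentration that stops growth completely.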

Among the test systems are A498 renal; HL-60(TB) leukemia; M14 melanoma; MALME-3M melanoma; NCI-H226 lung; NCI-H522 lung; OVCAR-4 ovarian; SF-295 CNS; SK-MEL-5 melanoma; SK-OV-3 ovarian.
Holding throughout (experiment): NCI anticancer screen, dose series, 48 h

With `CC/C(=C(/CC)c1ccc(O)cc1)c1ccc(O)cc1`, the GI50 in the assay on A498 renal is 12.4 µM; in the assay with HL-60(TB) leukemia, 4.07 µM; in the assay with M14 melanoma, 4.57 µM; with MALME-3M melanoma it was 5.54 µM; in the assay on NCI-H226 lung it was 14.6 µM; with NCI-H522 lung, 5.79 µM. Besides, the GI50 in the assay on OVCAR-4 ovarian is 8.06 µM; in the assay with SF-295 CNS, 2.73 µM; in the assay on SK-MEL-5 melanoma, 3.02 µM; in the assay with SK-OV-3 ovarian, 3.63 µM. Besides, the TGI was 25.2 µM with A498 renal; over 100 µM in the assay with HL-60(TB) leukemia; 15.7 µM in the assay on M14 melanoma; 25.1 µM in the assay on MALME-3M melanoma; 36 µM in the assay on NCI-H226 lung; 23 µM in the assay with NCI-H522 lung. Further, the TGI with OVCAR-4 ovarian was found to be 37 µM; with SF-295 CNS, 11.6 µM; in the assay with SK-MEL-5 melanoma, 12.9 µM; in the assay on SK-OV-3 ovarian it was 13 µM.
For `O=C(c1ccccc1)c1c2n(c3c1cc(O)c1ccccc13)CCN2`, the GI50 in the assay on A498 renal is 18.3 µM; in the assay with HL-60(TB) leukemia it was 2.17 µM; in the assay on M14 melanoma, 7.09 µM; in the assay on MALME-3M melanoma it was 1.97 µM; in the assay with NCI-H226 lung, 18.6 µM; in the assay on NCI-H522 lung it was 1.96 µM. In addition, the GI50 in the assay with OVCAR-4 ovarian was 1.53 µM; with SF-295 CNS, 7.11 µM; with SK-MEL-5 melanoma it was 12.1 µM; in the assay on SK-OV-3 ovarian, 11.1 µM. Further, the TGI in the assay with A498 renal was 35.4 µM; in the assay on HL-60(TB) leukemia it was 4.47 µM; in the assay with M14 melanoma it was 19.3 µM; in the assay with MALME-3M melanoma it was 4.19 µM; with NCI-H226 lung, 41.3 µM; with NCI-H522 lung it was 4.03 µM. The TGI in the assay with OVCAR-4 ovarian amounted to 2.86 µM; in the assay with SF-295 CNS, 20.8 µM; in the assay with SK-MEL-5 melanoma, 25.1 µM; in the assay with SK-OV-3 ovarian it was 25.2 µM.
`NNc1ncnc2cccc(Cl)c12`: the TGI with A498 renal, in the assay with HL-60(TB) leukemia, in the assay with M14 melanoma, in the assay on MALME-3M melanoma, with NCI-H226 lung and in the assay with NCI-H522 lung was over 100 µM in each case. In addition, the TGI in the assay with OVCAR-4 ovarian, with SF-295 CNS, in the assay with SK-MEL-5 melanoma and in the assay on SK-OV-3 ovarian was over 100 µM in each case.
Regarding `CCOC(=O)Nc1cc(-c2ccc(C)c(NS(C)(=O)=O)c2)nn2c(C)nnc12`, the GI50 was 1.59 µM with A498 renal; 0.334 µM in the assay with HL-60(TB) leukemia; 2.1 µM in the assay with M14 melanoma; 1.11 µM in the assay on MALME-3M melanoma; 3.93 µM with NCI-H226 lung; 0.381 µM in the assay with NCI-H522 lung. In addition, the GI50 in the assay with OVCAR-4 ovarian is 0.735 µM; in the assay with SF-295 CNS, 1.85 µM; in the assay with SK-MEL-5 melanoma, 2.68 µM; in the assay with SK-OV-3 ovarian, 1.21 µM. The TGI was 5.88 µM in the assay with A498 renal; 2.71 µM in the assay on HL-60(TB) leukemia; over 100 µM with M14 melanoma; 41.5 µM with MALME-3M melanoma; 24.4 µM with NCI-H226 lung; 3.22 µM with NCI-H522 lung. In addition, the TGI in the assay with OVCAR-4 ovarian came to 10.9 µM; with SF-295 CNS, 56.3 µM; in the assay with SK-MEL-5 melanoma, 10.4 µM; in the assay on SK-OV-3 ovarian, 5.66 µM.
Regarding `C=C(C)C1CCC2(C(=O)O)CCC3(C)C(CCC4C5(C)CCC(O)C(C)(C)C5CCC43C)C12` (stereo not given), the TGI amounted to 20.7 µM in the assay on A498 renal; 10.5 µM in the assay on HL-60(TB) leukemia; 27.7 µM with M14 melanoma; 27.9 µM in the assay on MALME-3M melanoma; 40.9 µM in the assay with NCI-H226 lung; 18.2 µM with NCI-H522 lung. Also, the TGI in the assay with OVCAR-4 ovarian turned out to be 14.7 µM; in the assay on SF-295 CNS, 23.6 µM; with SK-MEL-5 melanoma, 20.3 µM; in the assay on SK-OV-3 ovarian, 34.2 µM.
For the compound `COc1cc(=O)oc(/C=C/CO)c1C`, the TGI in the assay with A498 renal, in the assay on HL-60(TB) leukemia, in the assay on M14 melanoma, with MALME-3M melanoma, with NCI-H226 lung and with NCI-H522 lung was over 100 µM each time. The TGI in the assay on OVCAR-4 ovarian, with SF-295 CNS, in the assay with SK-MEL-5 melanoma and in the assay with SK-OV-3 ovarian was over 100 µM in each case.
As to `CSc1nc(SC)c2c(C)cn(C3OC(C)C(O)C(O)C3O)c2n1` (stereo not given), the TGI is 74.4 µM in the assay on A498 renal; over 100 µM in the assay with HL-60(TB) leukemia; over 100 µM in the assay on M14 melanoma; over 100 µM in the assay on MALME-3M melanoma; over 100 µM in the assay on NCI-H226 lung; over 100 µM in the assay on NCI-H522 lung. In addition, the TGI in the assay on OVCAR-4 ovarian, in the assay with SF-295 CNS, in the assay on SK-MEL-5 melanoma and in the assay on SK-OV-3 ovarian was over 100 µM throughout.
With `Cc1cc(N(CCC#N)CCC#N)ccc1CC1N=C(c2ccccc2)OC1=O` (stereo not given), the TGI in the assay on A498 renal, with HL-60(TB) leukemia, with M14 melanoma, in the assay with MALME-3M melanoma, in the assay with NCI-H226 lung and in the assay on NCI-H522 lung was over 100 µM each time. The TGI in the assay with OVCAR-4 ovarian, with SF-295 CNS, in the assay with SK-MEL-5 melanoma and with SK-OV-3 ovarian was over 100 µM in each case.
For `CCCCC1N=CNc2c1ccc1c2[nH]c2ccccc21` (stereo not given), the TGI with A498 renal is 29.8 µM; in the assay on HL-60(TB) leukemia it was 3.68 µM; in the assay on M14 melanoma it was 6.74 µM; in the assay with MALME-3M melanoma it was 10.5 µM; in the assay with NCI-H226 lung, over 61.1 µM; in the assay on NCI-H522 lung, 3.57 µM. Also, the TGI is 8.15 µM in the assay on OVCAR-4 ovarian, 7.25 µM in the assay on SF-295 CNS, 2.95 µM in the assay with SK-MEL-5 melanoma and 11.3 µM in the assay on SK-OV-3 ovarian.
For `C/C(CC(=O)Nc1cccc(C)c1C)=N\NC(N)=S`, the TGI in the assay on A498 renal, in the assay with HL-60(TB) leukemia, in the assay with M14 melanoma, in the assay with MALME-3M melanoma, with NCI-H226 lung and in the assay on NCI-H522 lung was over 100 µM in each case. The TGI with OVCAR-4 ovarian, in the assay with SF-295 CNS, with SK-MEL-5 melanoma and in the assay on SK-OV-3 ovarian was over 100 µM throughout.
On to `O=C(O)c1c[nH]c2c(ccc3[nH]cc(C(=O)O)c(=O)c32)c1=O`, for which the TGI in the assay on A498 renal, with HL-60(TB) leukemia, in the assay with M14 melanoma, with MALME-3M melanoma, in the assay on NCI-H226 lung and in the assay with NCI-H522 lung was over 100 µM each time. Moreover, the TGI with OVCAR-4 ovarian, in the assay with SF-295 CNS, with SK-MEL-5 melanoma and with SK-OV-3 ovarian was over 100 µM in each case.

The values above are taken from PubChem BioAssay (NCI).
